From patent publication US7427627B2, “N-(4-(4-methylthiazol-5-yl) pyrimidin-2-yl)-N-phenylamines as antiproliferative compounds” (Cyclacel Limited, priority 2001, dated 2008)
Where two headings read alike, the source gives them in different places. Blank lines part the entries; values can stand above or below the molecule they belong to.

Experiments:
Messa-Dx5 = test: 72-h MTT assay, Messa-Dx5; assay type: cell-based; conditions: Homo sapiens, MES-SA/Dx5, 72 h, read-out: 72-h MTT IC50 Messa-Dx5; Table 3; Uterine
Procedure: (§1) The compounds from the examples above were subjected to a standard cellular proliferation assay using human tumour cell lines obtained from the ATCC (American Type Culture Collection, 10801 University Boulevard, Manessas, Va. 20110-2209, USA). Standard 72-h MTT (thiazolyl blue; 3-[4,5-dimethylthiazol-2-yl]-2,5-diphenyltetrazolium bromide) assays were performed (Haselsberger, K.; Peterson, D. C.; Thomas, D. G.; Darling, J. L. Anti Cancer Drugs 1996, 7, 331-8; Loveland, B. E.; Johns, T. G.; Mackay, I. R.; Vaillant, F.; Wang, Z. X.; Hertzog, P. J. Biochemistry International 1992, 27, 501-10). In short: cells were seeded into 96-well plates according to doubling time and incubated overnight at 37° C. Test compounds were made up in DMSO and a 1/3 dilution series prepared in 100 μL cell media, added to cells (in triplicates) and incubated for 72 ho at 37° C. MTT was made up as a stock of 5 mg/mL in cell media and filter-sterilised. Media was removed from cells followed by a wash with 200 μL PBS. MTT solution was then added at 20 μL per well and incubated in the dark at 37° C. for 4 h. MTT solution was removed and cells again washed with 200 μL PBS. MTT dye was solubilised with 200 μL per well of DMSO with agitation.

Lovo = test: 72-h MTT assay, Lovo; assay type: cell-based; conditions: Homo sapiens, read-out: 72-h MTT IC50 Lovo, Table 3, Colon
Procedure: as §1

K562 = test: 72-h MTT assay, K562; assay type: cell-based; conditions: Homo sapiens, K562, 72 h, read-out: 72-h MTT IC50 K562; Table 3; Chronic myelogenous leukaemia
Procedure: as §1

H1299 = test: 72-h MTT assay, H1299; assay type: cell-based; conditions: Homo sapiens, NCI-H1299, 72 h, read-out: 72-h MTT IC50 H1299; Table 3; Lung
Procedure: as §1

CDK4/cyclin D1 = CDK4/cyclin D1 (Homo sapiens, UniProt P11802); test: Kinase assay CDK4/cyclin D1;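 further: Enzyme: His6-tagged recombinant human CDK4 produced in baculovirus-infected Sf9 insect cells and purified by metal-chelate chromatography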
Chain of CDK4/cyclin D1 (P11802 whole entry): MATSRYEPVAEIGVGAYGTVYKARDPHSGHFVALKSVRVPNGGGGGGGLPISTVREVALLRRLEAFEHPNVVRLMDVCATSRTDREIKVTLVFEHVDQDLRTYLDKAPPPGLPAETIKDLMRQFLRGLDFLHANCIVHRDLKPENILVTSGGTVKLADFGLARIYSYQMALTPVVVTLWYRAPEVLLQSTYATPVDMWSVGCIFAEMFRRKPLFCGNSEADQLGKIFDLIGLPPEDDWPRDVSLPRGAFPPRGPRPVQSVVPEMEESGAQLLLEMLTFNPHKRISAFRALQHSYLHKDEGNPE
Chain of CDK4/cyclin D1 (P24385 whole entry partner): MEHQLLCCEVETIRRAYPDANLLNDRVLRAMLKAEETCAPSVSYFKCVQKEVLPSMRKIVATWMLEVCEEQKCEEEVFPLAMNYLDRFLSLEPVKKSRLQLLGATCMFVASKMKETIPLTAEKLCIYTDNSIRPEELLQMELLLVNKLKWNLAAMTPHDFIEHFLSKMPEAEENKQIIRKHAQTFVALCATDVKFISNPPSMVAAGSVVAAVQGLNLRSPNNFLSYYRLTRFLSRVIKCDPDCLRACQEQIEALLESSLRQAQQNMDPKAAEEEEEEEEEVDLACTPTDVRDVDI

Hela = test: 72-h MTT assay, Hela; assay type: cell-based; conditions: Homo sapiens, read-out: 72-h MTT IC50 Hela, Table 3, Cervix
Procedure: as §1

Hacat = test: 72-h MTT assay, Hacat; assay type: cell-based; conditions: Homo sapiens, read-out: 72-h MTT IC50 Hacat, Table 3, Skin keratinocytes
Procedure: as §1

SKUT-1 = test: 72-h MTT assay, SKUT-1; assay type: cell-based; conditions: Homo sapiens, SK-UT-1, 72 h, read-out: 72-h MTT IC50 SKUT-1; Table 3; Leiomyosarcoma
Procedure: as §1

Messa = test: 72-h MTT assay, Messa; assay type: cell-based; conditions: Homo sapiens, MES-SA, read-out: 72-h MTT IC50 Messa, Table 3, Uterine
Procedure: as §1

HL60 = test: 72-h MTT assay, HL60; assay type: cell-based; conditions: Homo sapiens, HL-60, 72 h, read-out: 72-h MTT IC50 HL60; Table 3; Promyelocytic leukaemia
Procedure: as §1

WI38 = test: 72-h MTT assay, WI38; assay type: cell-based; conditions: Homo sapiens, WI-38, 72 h, read-out: 72-h MTT IC50 WI38; Table 3; Foetal lung (non-transformed)
Procedure: as §1

Hs27 = test: 72-h MTT assay, Hs27; assay type: cell-based; conditions: Homo sapiens, HS27, 72 h, read-out: 72-h MTT IC50 Hs27; Table 3; Foreskin fibroblast (non-transformed)
Procedure: as §1

CDK2/cyclin E = biological target: T1, CDK2/cyclin E (Homo sapiens, UniProt P24941); test: Kinase assay CDK2/cyclin E; assay type: biochemical; conditions: Table 1; read-out: Kinase inhibition, IC50 (μM) CDK2/E
T1 construct: His6

HCT-116 = test: 72-h MTT assay, HCT-116; assay type: cell-based; conditions: Homo sapiens, HCT-116, 72 h, read-out: 72-h MTT IC50 HCT-116; Table 3; Colon
Procedure: as §1

SK-N-MC = test: 72-h MTT assay, SK-N-MC; assay type: cell-based; conditions: Homo sapiens, read-out: 72-h MTT IC50 SK-N-MC, Table 3, Neuroblastoma
Procedure: as §1

SKUT-1B = test: 72-h MTT assay, SKUT-1B; assay type: cell-based; conditions: Homo sapiens, Skut1B, read-out: 72-h MTT IC50 SKUT-1B, Table 3, Leiomyosarcoma
Procedure: as §1

DU-145 = test: 72-h MTT assay, DU-145; assay type: cell-based; conditions: Homo sapiens, DU-145, 72 h, read-out: 72-h MTT IC50 DU-145; Table 3; Prostate
Procedure: as §1

CCRF-CEM = test: 72-h MTT assay, CCRF-CEM; assay type: cell-based; conditions: Homo sapiens, read-out: 72-h MTT IC50 CCRF-CEM, Table 3, Leukaemia
Procedure: as §1

nci-H460 = test: 72-h MTT assay, nci-H460; assay type: cell-based; conditions: Homo sapiens, NCI-H460, 72 h, read-out: 72-h MTT IC50 nci-H460; Table 3; Lung
Procedure: as §1

IMR-90 = test: 72-h MTT assay, IMR-90; assay type: cell-based; conditions: Homo sapiens, IMR-90, 72 h, read-out: 72-h MTT IC50 IMR-90; Table 3; Foetal lung fibroblast (non-transformed)
Procedure: as §1

Saos-2 = test: 72-h MTT cytotoxicity assay, Saos-2; assay type: cell-based; conditions: Homo sapiens
Procedure: as §1

AGS = test: 72-h MTT assay, AGS; assay type: cell-based; conditions: Homo sapiens, read-out: 72-h MTT IC50 AGS, Table 3, Gastric adenocarcinoma
Procedure: as §1

HT29 = test: 72-h MTT cytotoxicity assay, HT29; assay type: cell-based; conditions: Homo sapiens
Procedure: as §1

tumour cells = test: 72-h MTT assay, mean over tumour cell lines; assay type: cell-based; conditions: Homo sapiens, Table 3
Procedure: as §1

A549 = test: 72-h MTT cytotoxicity assay, A549; assay type: cell-based, human; conditions: Homo sapiens
Procedure: In short: cells were seeded into 96-well plates according to doubling time and incubated overnight at 37° C. Test compounds were made up in DMSO and a 1/3 dilution series prepared in 100 μL cell media, added to cells (in triplicates) and incubated for 72 ho at 37° C. MTT was made up as a stock of 5 mg/mL in cell media and filter-sterilised. Media was removed from cells followed by a wash with 200 μL PBS. MTT solution was then added at 20 μL per well and incubated in the dark at 37° C. for 4 h. MTT solution was removed and cells again washed with 200 μL PBS. MTT dye was solubilised with 200 μL per well of DMSO with agitation.

[1] = biological target: calmodulin-dependent kinase II; conditions: read-out: Kinase specificity IC50 Cam-KII; Table 2
protein kinase B = protein kinase B (Homo sapiens, UniProt P31749); test: Kinase specificity assay Akt/PKB; assay type: biochemical; conditions: Table 2
Ableson tyrosine kinase = Ableson tyrosine kinase (Homo sapiens, UniProt P00519); test: Kinase specificity assay Abl; assay type: biochemical; conditions: Table 2
Chain of Ableson tyrosine kinase (P00519 whole entry): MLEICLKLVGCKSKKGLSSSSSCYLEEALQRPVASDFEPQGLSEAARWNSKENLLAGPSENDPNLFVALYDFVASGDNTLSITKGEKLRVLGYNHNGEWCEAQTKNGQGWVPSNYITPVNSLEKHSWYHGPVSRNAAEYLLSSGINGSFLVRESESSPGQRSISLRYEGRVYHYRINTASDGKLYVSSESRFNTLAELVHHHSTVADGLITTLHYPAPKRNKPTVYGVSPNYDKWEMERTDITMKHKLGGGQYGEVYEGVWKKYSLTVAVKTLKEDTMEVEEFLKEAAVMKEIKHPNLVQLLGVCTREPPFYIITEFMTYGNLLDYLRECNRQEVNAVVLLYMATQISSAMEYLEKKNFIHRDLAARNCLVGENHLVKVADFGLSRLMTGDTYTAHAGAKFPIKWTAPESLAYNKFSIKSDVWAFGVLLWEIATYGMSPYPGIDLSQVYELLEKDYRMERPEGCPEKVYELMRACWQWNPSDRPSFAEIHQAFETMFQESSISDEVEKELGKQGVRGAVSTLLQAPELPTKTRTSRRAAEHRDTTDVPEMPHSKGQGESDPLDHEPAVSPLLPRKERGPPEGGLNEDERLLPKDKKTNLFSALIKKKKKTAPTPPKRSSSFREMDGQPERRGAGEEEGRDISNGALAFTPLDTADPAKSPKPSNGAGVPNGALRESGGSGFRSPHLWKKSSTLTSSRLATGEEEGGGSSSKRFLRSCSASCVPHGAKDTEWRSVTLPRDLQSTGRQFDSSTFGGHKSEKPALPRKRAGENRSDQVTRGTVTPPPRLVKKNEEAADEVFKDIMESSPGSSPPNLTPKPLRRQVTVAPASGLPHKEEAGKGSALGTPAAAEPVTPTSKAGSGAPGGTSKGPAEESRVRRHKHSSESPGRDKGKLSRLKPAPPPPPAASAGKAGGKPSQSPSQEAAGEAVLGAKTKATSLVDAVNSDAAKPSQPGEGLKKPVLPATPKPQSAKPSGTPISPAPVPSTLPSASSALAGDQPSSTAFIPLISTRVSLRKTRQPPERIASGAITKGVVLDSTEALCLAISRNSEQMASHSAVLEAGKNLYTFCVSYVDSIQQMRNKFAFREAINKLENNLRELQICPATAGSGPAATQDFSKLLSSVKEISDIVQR

[2] = biological target: p70 ribosomal protein S6 kinase (Homo sapiens, UniProt P23443); test: Kinase specificity assay p70-S6K; assay type: biochemical; conditions: Table 2
Chain of p70 ribosomal protein S6 kinase (P23443 24-525): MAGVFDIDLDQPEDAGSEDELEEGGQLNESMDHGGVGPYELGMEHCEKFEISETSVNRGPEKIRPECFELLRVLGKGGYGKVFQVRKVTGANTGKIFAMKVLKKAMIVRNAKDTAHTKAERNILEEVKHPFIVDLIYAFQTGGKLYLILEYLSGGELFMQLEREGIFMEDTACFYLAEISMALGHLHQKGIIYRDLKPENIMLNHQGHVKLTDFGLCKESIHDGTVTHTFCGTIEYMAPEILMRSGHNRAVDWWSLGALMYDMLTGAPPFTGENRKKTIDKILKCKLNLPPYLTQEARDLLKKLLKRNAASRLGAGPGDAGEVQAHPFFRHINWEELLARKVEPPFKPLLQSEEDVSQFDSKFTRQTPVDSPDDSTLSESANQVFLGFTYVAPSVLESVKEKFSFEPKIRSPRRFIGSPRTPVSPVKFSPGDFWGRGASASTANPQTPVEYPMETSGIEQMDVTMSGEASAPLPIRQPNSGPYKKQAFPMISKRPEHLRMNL

[3] = biological target: extracellular-signal-regulated kinase 2 (Homo sapiens, UniProt P28482); test: Kinase specificity assay ERK-2; assay type: biochemical; conditions: Table 2
polo-like kinase 1 = polo-like kinase 1 (Homo sapiens, UniProt P53350); test: Kinase specificity assay Plk1; assay type: biochemical; conditions: Table 2
Chain of polo-like kinase 1 (P53350 whole entry): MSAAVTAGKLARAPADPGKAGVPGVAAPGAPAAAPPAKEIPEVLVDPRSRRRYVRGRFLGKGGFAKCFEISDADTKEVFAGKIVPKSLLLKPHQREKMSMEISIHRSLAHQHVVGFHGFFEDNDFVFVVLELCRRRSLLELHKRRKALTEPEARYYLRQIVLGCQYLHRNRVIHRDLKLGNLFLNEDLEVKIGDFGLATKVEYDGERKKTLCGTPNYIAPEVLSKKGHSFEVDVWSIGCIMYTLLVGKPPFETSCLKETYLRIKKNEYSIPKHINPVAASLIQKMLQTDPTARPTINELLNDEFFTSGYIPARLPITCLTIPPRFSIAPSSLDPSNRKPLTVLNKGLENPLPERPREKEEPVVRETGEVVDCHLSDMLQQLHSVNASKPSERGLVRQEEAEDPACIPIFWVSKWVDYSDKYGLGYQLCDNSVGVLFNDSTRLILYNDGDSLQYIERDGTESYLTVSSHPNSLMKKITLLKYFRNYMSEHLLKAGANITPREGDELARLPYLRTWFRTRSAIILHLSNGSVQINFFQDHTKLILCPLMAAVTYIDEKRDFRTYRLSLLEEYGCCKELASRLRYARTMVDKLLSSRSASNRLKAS

[4] = biological target: CDK7-cyclin H-MAT 1 complex (Homo sapiens, UniProt P50613); test: Kinase specificity assay CDK7/H; assay type: biochemical; conditions: Table 2
Chain of CDK7-cyclin H-MAT 1 complex (P50613 whole entry): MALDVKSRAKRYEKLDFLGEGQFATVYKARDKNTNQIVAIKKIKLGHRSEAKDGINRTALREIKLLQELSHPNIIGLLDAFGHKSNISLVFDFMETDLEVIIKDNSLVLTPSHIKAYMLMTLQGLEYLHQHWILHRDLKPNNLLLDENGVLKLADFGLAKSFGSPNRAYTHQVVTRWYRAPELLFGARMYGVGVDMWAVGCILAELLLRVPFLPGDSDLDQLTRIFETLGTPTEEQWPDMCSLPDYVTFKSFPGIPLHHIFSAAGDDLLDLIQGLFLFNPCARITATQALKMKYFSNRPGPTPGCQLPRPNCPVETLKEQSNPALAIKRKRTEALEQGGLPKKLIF
Chain of CDK7-cyclin H-MAT 1 complex (P51946 whole entry partner): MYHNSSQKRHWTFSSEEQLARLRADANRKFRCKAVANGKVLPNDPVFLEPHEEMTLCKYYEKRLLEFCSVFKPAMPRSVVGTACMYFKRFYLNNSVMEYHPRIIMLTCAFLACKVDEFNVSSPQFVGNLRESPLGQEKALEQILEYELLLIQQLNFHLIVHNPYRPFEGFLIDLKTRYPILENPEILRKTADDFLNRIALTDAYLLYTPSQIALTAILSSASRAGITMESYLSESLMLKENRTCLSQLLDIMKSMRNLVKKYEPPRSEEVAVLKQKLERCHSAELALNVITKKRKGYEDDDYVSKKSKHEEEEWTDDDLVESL
Chain of CDK7-cyclin H-MAT 1 complex (P51948 whole entry partner): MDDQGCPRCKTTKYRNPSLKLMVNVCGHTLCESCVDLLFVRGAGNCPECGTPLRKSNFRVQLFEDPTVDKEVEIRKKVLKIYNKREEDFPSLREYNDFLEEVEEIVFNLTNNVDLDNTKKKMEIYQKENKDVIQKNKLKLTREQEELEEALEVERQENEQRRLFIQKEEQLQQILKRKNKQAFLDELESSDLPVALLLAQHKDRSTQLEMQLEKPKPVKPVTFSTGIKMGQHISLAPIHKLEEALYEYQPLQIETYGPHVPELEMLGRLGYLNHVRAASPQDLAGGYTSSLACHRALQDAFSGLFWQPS

[5] = biological target: stress-activated protein kinase 2a (Homo sapiens, UniProt Q16539); test: Kinase specificity assay SAPK2a; assay type: biochemical; conditions: Table 2
[6] = biological target: glycogen synthase kinase 3β (Homo sapiens, UniProt P49841); test: Kinase specificity assay GSK3β; assay type: biochemical; conditions: Table 2
Chain of glycogen synthase kinase 3β (P49841 whole entry): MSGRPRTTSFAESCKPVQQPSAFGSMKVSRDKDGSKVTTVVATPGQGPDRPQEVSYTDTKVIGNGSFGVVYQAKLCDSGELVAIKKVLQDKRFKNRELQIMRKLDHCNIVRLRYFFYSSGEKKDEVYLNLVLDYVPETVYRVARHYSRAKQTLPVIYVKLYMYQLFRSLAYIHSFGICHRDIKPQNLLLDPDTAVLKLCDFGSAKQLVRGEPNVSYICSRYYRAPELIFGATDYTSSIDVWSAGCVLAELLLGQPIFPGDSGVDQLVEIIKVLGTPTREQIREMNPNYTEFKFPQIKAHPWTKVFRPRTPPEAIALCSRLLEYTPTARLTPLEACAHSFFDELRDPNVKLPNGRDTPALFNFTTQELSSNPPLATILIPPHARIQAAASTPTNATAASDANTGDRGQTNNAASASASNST

protein kinase C α = biological target: T2, protein kinase C α (Homo sapiens, UniProt P17252); test: Kinase specificity assay PKCα; assay type: biochemical; conditions: Table 2
T2 construct: His6
Procedure: PKCα kinase activity may be measured by the incorporation of radio-labeled phosphate in Histone 3, as described. The reaction mixture (total volume 65 μl) consist of 50 mM Tris-HCl, 1 mM Calcium acetate, 3 mM DTT, 0.03 mg/ml Phosphatidylserine, 2.4 μg/ml PMA, 0.04% NP40, 12 mM Mg/Cl, purified PKCα-100 ng, Histone 3, 0.2 mg/ml, 100 μM ATP, 0.2 μCi [γ-^32P]-ATP. The reaction is carried over 15 min at 37° C. in microplate shaker and is stopped by adding 10 μl 75 mM orthophosphoric acid and placing the plate on ice. 50 μl of the reaction mixture is transferred onto P81 filterplate and after washing off the free radioactive phosphate (3 times with 200 μl 75 mM orthophosphoric acid per well) 50 μl of scintillation liquid (Microscint 40) were added to each well and the radioactivity is measured on Scintillation counter (Topcount, HP).

[7] = SAOS-2, read-out: 72-h MTT in vitro IC50 (μM) Saos-2, Table 1, 72 h
[8] = HT-29, read-out: 72-h MTT in vitro IC50 (μM) HT29, Table 1, 72 h
[9] = A549, read-out: 72-h MTT in vitro IC50 (μM) A549, Table 1, 72 h

IC50 (Lovo): 210 nM
IC50 (K562): 540 nM
IC50 (H1299): 1060 nM
IC50 (CDK4/cyclin D1): 1.77 µM
IC50 (Hela): 560 nM
IC50 (SKUT-1): 640 nM
IC50 (HL60): 430 nM
IC50 (CDK2/cyclin E): 0.09 µM
IC50 (HCT-116): 960 nM
IC50 (SK-N-MC): 420 nM
IC50 (SKUT-1B): 300 nM
IC50 (DU-145): 1750 nM
IC50 (CCRF-CEM): 500 nM
IC50 (nci-H460): 280 nM
IC50 (AGS): 1110 nM
IC50 (tumour cells): 680 nM
Compound: Cc1nc(N)sc1-c1ccnc(Nc2cccc(Br)c2)n1 [Compound 16, [4-(2-Amino-4-methyl-thiazol-5-yl)-pyrimidin-2-yl]-(3-bromo-phenyl)-amine]
IC50 (Messa-Dx5): 590 nM
IC50 (Hacat): 500 nM
IC50 (Messa): 590 nM
IC50 (WI38): > 5000 nM
IC50 (Hs27): > 5000 nM
IC50 (IMR-90): > 5000 nM
IC50 (Saos-2; SAOS-2, 72 h, read-out: 72-h MTT IC50 Saos-2, Table 3, Bone osteosarcoma): 0.73 µM
IC50 (Saos-2; [7]): 0.81 µM
IC50 (HT29; HT-29, 72 h, read-out: 72-h MTT IC50 HT29, Table 3, Colon): 0.25 µM
IC50 (HT29; [8]): 0.66 µM
IC50 (A549; A549, 72 h, read-out: 72-h MTT IC50 A549, Table 3, Lung): 1.32 µM
IC50 (A549; [9]): 0.82 µM

Compound: Cc1nc(C)c(-c2ccnc(Nc3ccc(N(C)C)c(Cl)c3)n2)s1 [Compound 26, 2-[N-(4-N,N-Dimethylamino-3-chlorophenyl)]-4-(2,4-dimethylthiazol-5-yl)-pyrimidineamine]
IC50 [1]: 69000 nM
IC50 (protein kinase B): 6300 nM
IC50 (Ableson tyrosine kinase): 1600 nM
IC50 [2]: 32000 nM
IC50 [3]: 20000 nM
IC50 (Saos-2; [7]): 0.32 µM
IC50 (polo-like kinase 1): > 100000 nM
IC50 [4]: 4800 nM
IC50 (HT29; [8]): 0.15 µM
IC50 [5]: 86000 nM
IC50 (A549; [9]): 0.29 µM
IC50 [6]: 2200 nM
IC50 (protein kinase C α): 24000 nM

IC50 (CDK4/cyclin D1; read-out: Kinase inhibition, IC50 (μM) CDK4/D1, Table 1): 3.98 µM
IC50 (CDK2/cyclin E): 0.7 µM
Compound: Cc1ccc(Nc2nccc(-c3sc(=O)n(C)c3C)n2)cc1I [Compound 40, 5-[2-(3-Iodo-4-methyl-phenylamino)-pyrimidin-4-yl]-3,4-dimethyl-3H-thiazol-2-one]
IC50 (Saos-2; [7]): 22 µM
IC50 (HT29; [8]): 7.74 µM
IC50 (A549; [9]): 6.63 µM

IC50 (CDK4/cyclin D1): 1.13 µM
IC50 (CDK2/cyclin E): 0.01 µM
Compound: Cc1nc(NS(C)(=O)=O)sc1-c1ccnc(Nc2cccc([N+](=O)[O-])c2)n1 [Compound 56, N-{4-Methyl-5-[2-(3-nitro-phenylamino)-pyrimidin-4-yl]-thiazol-2-yl}-methane sulfonamide]
IC50 (Saos-2; [7]): 0.16 µM
IC50 (HT29; [8]): 0.17 µM
IC50 (A549; [9]): 0.1 µM

IC50 (CDK4/cyclin D1): 0.11 µM
IC50 (CDK2/cyclin E): 0.004 µM
Compound: Cc1nc(NCCO)sc1-c1ccnc(Nc2cccc([N+](=O)[O-])c2)n1 [Compound 58, 2-{4-Methyl-5-[2-(3-nitro-phenylamino)-pyrimidin-4-yl]-thiazol-2-ylamino}-ethanol]
IC50 (Saos-2; [7]): 0.06 µM
IC50 (HT29; [8]): 0.09 µM
IC50 (A549; [9]): 0.01 µM

IC50 (CDK4/cyclin D1): 0.86 µM
IC50 (CDK2/cyclin E): 0.07 µM
Compound: Cc1nc(NC(=O)CCl)sc1-c1ccnc(Nc2cccc([N+](=O)[O-])c2)n1 [Compound 60, 2-Chloro-N-{4-methyl-5-[2-(3-nitro-phenylamino)-pyrimidin-4-yl]-thiazol-2-yl}-acetamide]
IC50 (Saos-2; [7]): 0.21 µM
IC50 (HT29; [8]): 0.25 µM
IC50 (A549; [9]): 0.15 µM

IC50 (CDK4/cyclin D1): 0.68 µM
IC50 (CDK2/cyclin E): 0.23 µM
Compound: Cc1nc(NC(=O)CCl)sc1-c1ccnc(Nc2ccc(F)cc2)n1 [Compound 61, 2-Chloro-N-{5-[2-(4-fluoro-phenylamino)-pyrimidin-4-yl]-4-methyl-thiazol-2-yl}-acetamide]
IC50 (Saos-2; [7]): 0.3 µM
IC50 (HT29; [8]): 0.11 µM
IC50 (A549; [9]): 0.33 µM
